Where a SMILES comes first, the peptide text is derived from it. Bridges are numbered along the chain shown (N, C = ends). The star is where a group is joined. NOTA = O=C(O)CN1CCN(CC(=O)O)CCN(CC(=O)*)CC1
Tests used:
ACE2 [1] = target: T1, ACE2 (Homo sapiens, UniProt Q9BYF1); test: ACE2 inhibition assay (SensoLyte 390 ACE2 Activity Assay Kit, fluorimetric, AnaSpec); assay type: biochemical; settings: for IC50: nonlinear fit of 6-point dilution series, Fig. 2D
T1 construct: purchased AnaSpec AS-72086
Experimental: Six DX600-derived peptides, named NOTA-PEP1 to NOTA-PEP6 (cyclic vs. noncyclic, with triglycine, aminocaproate, and polyethylene glycol linkers), were studied using a commercially available ACE2 inhibition assay according to the manufacturer’s instructions (SensoLyte 390 ACE2 Activity Assay Kit *Fluorimetric*, AS-72086; AnaSpec). Each peptide inhibitor was first tested at 4 concentrations. Initial velocities were determined relative to the inhibitor free reaction. Subsequently, IC50 values were derived from nonlinear fits of saturation curves of a 6-point dilution series of peptide inhibitors.

ACE2 [2] = target: T1, ACE2; set-up: method as in earlier work; settings: vs. ACE and carboxypeptidase A; ref 30 (Huang et al.); cited from earlier work
[3] = fluorometric ACE2 inhibition assay (AnaSpec)

T1 sequence (Q9BYF1 18-805): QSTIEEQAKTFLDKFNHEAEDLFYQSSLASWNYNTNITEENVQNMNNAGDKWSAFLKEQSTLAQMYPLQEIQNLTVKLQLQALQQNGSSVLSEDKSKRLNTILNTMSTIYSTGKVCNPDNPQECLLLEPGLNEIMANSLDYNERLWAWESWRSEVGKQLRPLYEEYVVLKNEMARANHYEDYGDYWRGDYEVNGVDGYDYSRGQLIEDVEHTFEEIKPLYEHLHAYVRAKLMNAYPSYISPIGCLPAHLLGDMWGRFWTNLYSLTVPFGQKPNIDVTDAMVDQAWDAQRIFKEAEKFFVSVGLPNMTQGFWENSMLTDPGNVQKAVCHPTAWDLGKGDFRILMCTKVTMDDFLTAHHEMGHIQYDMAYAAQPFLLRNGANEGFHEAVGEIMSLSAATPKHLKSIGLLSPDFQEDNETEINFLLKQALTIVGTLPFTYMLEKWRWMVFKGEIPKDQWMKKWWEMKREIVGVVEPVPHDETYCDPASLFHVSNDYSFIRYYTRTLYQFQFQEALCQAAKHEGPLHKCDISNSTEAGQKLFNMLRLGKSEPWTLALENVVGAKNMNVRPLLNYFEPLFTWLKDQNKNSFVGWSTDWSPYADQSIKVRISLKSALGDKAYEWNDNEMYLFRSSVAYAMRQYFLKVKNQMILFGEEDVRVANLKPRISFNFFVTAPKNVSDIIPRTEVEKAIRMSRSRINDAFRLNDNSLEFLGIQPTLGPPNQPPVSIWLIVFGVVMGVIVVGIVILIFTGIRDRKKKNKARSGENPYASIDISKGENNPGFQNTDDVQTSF

| SMILES | IC50 (ACE2 [1]; [3]) [nM] | Change of observed ACE2 IC50 on addition of tris(2-carboxyethyl)phosphine (TCEP) (ACE2 [1]; TCEP reduces the disulfide bridge (producing linear NOTA-PEP5), Fig. 2E) | ACE2 inhibition compared with parent DX600 peptide (ACE2 [1]; fluorometric ACE2 inhibition assay (AnaSpec), Figs. 2C and 2D) | Specificity for ACE2 (ACE2 [2]) |
| --- | --- | --- | --- | --- |
| CC(=O)NCC(=O)N[C@@H](CC(=O)O)C(=O)N[C@@H](Cc1ccc(O)cc1)C(=O)N[C@@H](CO)C(=O)N[C@@H](Cc1c[nH]cn1)C(=O)N[C@H]1CSSC[C@@H](C(=O)N[C@H](C(=O)N[C@@H](Cc2ccc(O)cc2)C(=O)N2CCC[C@H]2C(=O)N[C@@H](CC(=O)O)C(=O)N2CCC[C@H]2C(=O)N[C@@H](CCC(=O)O)C(=O)NCC(=O)NCC(=O)NCC(N)=O)[C@@H](C)O)NC(=O)[C@H](CCCCN)NC(=O)[C@H](Cc2c[nH]c3ccccc23)NC(=O)[C@H](Cc2c[nH]c3ccccc23)NC(=O)[C@@H]2CCCN2C(=O)[C@H](Cc2ccc(O)cc2)NC(=O)[C@H](Cc2ccc(O)cc2)NC(=O)[C@H](CCCNC(=N)N)NC(=O)[C@H](CC(C)C)NC(=O)[C@@H]2CCCN2C(=O)[C@H](CO)NC1=O [DX600, reference compound] | 114 |  |  | specificity for ACE2 vs. ACE and carboxypeptidase A |
| CC(C)C[C@H](NC(=O)[C@@H]1CCCN1C(=O)[C@H](CO)NC(=O)[C@H](CS)NC(=O)[C@H](Cc1c[nH]cn1)NC(=O)[C@H](CO)NC(=O)[C@H](Cc1ccc(O)cc1)NC(=O)[C@H](CC(=O)O)NC(=O)CNC(=O)CNC(=O)CNC(=O)CNC(=O)CN1CCN(CC(=O)O)CCN(CC(=O)O)CC1)C(=O)N[C@@H](CCCNC(=N)N)C(=O)N[C@@H](Cc1ccc(O)cc1)C(=O)N[C@@H](Cc1ccc(O)cc1)C(=O)N1CCC[C@H]1C(=O)N[C@@H](Cc1c[nH]c2ccccc12)C(=O)N[C@@H](Cc1c[nH]c2ccccc12)C(=O)N[C@@H](CCCCN)C(=O)N[C@@H](CS)C(=O)N[C@H](C(=O)N[C@@H](Cc1ccc(O)cc1)C(=O)N1CCC[C@H]1C(=O)N[C@@H](CC(=O)O)C(=O)N1CCC[C@H]1C(=O)N[C@@H](CCC(=O)O)C(=O)NCC(=O)NCC(=O)NCC(N)=O)[C@@H](C)O [NOTA-PEP1] ({NOTA}-GGGGDYSHCSPLRYYPWWKCTYPDPEGGG-NH2) | 2400 |  |  |  |
| CC(C)C[C@@H]1NC(=O)[C@@H]2CCCN2C(=O)[C@H](CO)NC(=O)[C@@H](NC(=O)[C@H](Cc2c[nH]cn2)NC(=O)[C@H](CO)NC(=O)[C@H](Cc2ccc(O)cc2)NC(=O)[C@H](CC(=O)O)NC(=O)CNC(=O)CCOCCOCCNC(=O)CN2CCN(CC(=O)O)CCN(CC(=O)O)CC2)CSSC[C@@H](C(=O)N[C@H](C(=O)N[C@@H](Cc2ccc(O)cc2)C(=O)N2CCC[C@H]2C(=O)N[C@@H](CC(=O)O)C(=O)N2CCC[C@H]2C(=O)N[C@@H](CCC(=O)O)C(=O)NCC(=O)NCC(=O)NCC(N)=O)[C@@H](C)O)NC(=O)[C@H](CCCCN)NC(=O)[C@H](Cc2c[nH]c3ccccc23)NC(=O)[C@H](Cc2c[nH]c3ccccc23)NC(=O)[C@@H]2CCCN2C(=O)[C@H](Cc2ccc(O)cc2)NC(=O)[C@H](Cc2ccc(O)cc2)NC(=O)[C@H](CCCNC(=N)N)NC1=O [NOTA-PEP6] |  | markedly increased | nearly identical to DX600 |  |

Continued by falling IC50 (ACE2 [1]; [3]), values first:

| IC50 (ACE2 [1]; [3]) [nM] | Change of observed ACE2 IC50 on addition of tris(2-carboxyethyl)phosphine (TCEP) (ACE2 [1]; TCEP reduces the disulfide bridge (producing linear NOTA-PEP5), Fig. 2E) | ACE2 inhibition compared with parent DX600 peptide (ACE2 [1]; fluorometric ACE2 inhibition assay (AnaSpec), Figs. 2C and 2D) | SMILES | Specificity for ACE2 (ACE2 [2]) |
| --- | --- | --- | --- | --- |
| 101 |  |  | CC(C)C[C@@H]1NC(=O)[C@@H]2CCCN2C(=O)[C@H](CO)NC(=O)[C@@H](NC(=O)[C@H](Cc2c[nH]cn2)NC(=O)[C@H](CO)NC(=O)[C@H](Cc2ccc(O)cc2)NC(=O)[C@H](CC(=O)O)NC(=O)CNC(=O)CNC(=O)CNC(=O)CNC(=O)CN2CCN(CC(=O)O)CCN(CC(=O)O)CC2)CSSC[C@@H](C(=O)N[C@H](C(=O)N[C@@H](Cc2ccc(O)cc2)C(=O)N2CCC[C@H]2C(=O)N[C@@H](CC(=O)O)C(=O)N2CCC[C@H]2C(=O)N[C@@H](CCC(=O)O)C(=O)NCC(=O)NCC(=O)NCC(N)=O)[C@@H](C)O)NC(=O)[C@H](CCCCN)NC(=O)[C@H](Cc2c[nH]c3ccccc23)NC(=O)[C@H](Cc2c[nH]c3ccccc23)NC(=O)[C@@H]2CCCN2C(=O)[C@H](Cc2ccc(O)cc2)NC(=O)[C@H](Cc2ccc(O)cc2)NC(=O)[C@H](CCCNC(=N)N)NC1=O [NOTA-PEP2] ({NOTA}-GGGGDYSHCSPLRYYPWWKCTYPDPEGGG-NH2; disulfide 9-20) |  |
| 67.6 |  |  | CC(C)C[C@@H]1NC(=O)[C@@H]2CCCN2C(=O)[C@H](CO)NC(=O)[C@@H](NC(=O)[C@H](Cc2c[nH]cn2)NC(=O)[C@H](CO)NC(=O)[C@H](Cc2ccc(O)cc2)NC(=O)[C@H](CC(=O)O)NC(=O)CNC(=O)CCCCCNC(=O)CN2CCN(CC(=O)O)CCN(CC(=O)O)CC2)CSSC[C@@H](C(=O)N[C@H](C(=O)N[C@@H](Cc2ccc(O)cc2)C(=O)N2CCC[C@H]2C(=O)N[C@@H](CC(=O)O)C(=O)N2CCC[C@H]2C(=O)N[C@@H](CCC(=O)O)C(=O)NCC(=O)NCC(=O)NCC(N)=O)[C@@H](C)O)NC(=O)[C@H](CCCCN)NC(=O)[C@H](Cc2c[nH]c3ccccc23)NC(=O)[C@H](Cc2c[nH]c3ccccc23)NC(=O)[C@@H]2CCCN2C(=O)[C@H](Cc2ccc(O)cc2)NC(=O)[C@H](Cc2ccc(O)cc2)NC(=O)[C@H](CCCNC(=N)N)NC1=O [NOTA-PEP4] |  |
